Assay results from US7723364B2, “N-[2-(2-pyridinyl) ethyl]benzamide compounds and their use as fungicides” (Bayer Cropscience SA, priority 2003, dated 2010).

Columns and labels:
[1] = tested on: Pyrenophora teres; experiment: In vivo test on Pyrenophora teres (barley net blotch); settings: 288 h, dose of 330 ppm, barley plants sprayed 24 hours before contamination, grading 12 days after contamination vs control plants, read-out: good (at least 50%) or total protection
Description: In Vivo Test on Pyrenophora teres (Barley Net Blotch)
(§1) The active ingredient tested is prepared by potter homogenisation in a concentrated suspension type formulation at 100 g/l. This suspension is then diluted with water to obtain the desired active material concentration.
(§2) Barley plants (Express variety) in starter cups, sown on a 50/50 peat soil-pozzolana substrate and grown at 12° C., are treated at the 1-leaf stage (10 cm tall) by spraying with the aqueous suspension described above. Plants, used as controls, are treated with an aqueous solution not containing the active material.
After 24 hours, the plants are contaminated by spraying them with an aqueous suspension of Pyrenophora teres spores (12,000 spores per ml). The spores are collected from a 12-day-old culture. The contaminated barley plants are incubated for 24 hours at about 20° C. and at 100% relative humidity, and then for 12 days at 80% relative humidity.

[2] = tested on: Alternaria brassicae; experiment: In vivo test on Alternaria brassicae (leaf spot of crucifers) on radish plants; settings: Alternaria brassicae; dose of 330 ppm; radish plants sprayed 24 hours before contamination; grading 6 to 7 days after contamination vs control plants; read-out: good (at least 50%) or total protection
Description: In Vivo Test on Alternaria brassicae (Leaf Spot of Crucifers)
as §1
Radish plants (Pernot variety) in starter cups, sown on a 50/50 peat soil-pozzolana substrate and grown at 18-20° C., are treated at the cotyledon stage by spraying with the aqueous suspension described above.
(§3) Plants, used as controls, are treated with an aqueous solution not containing the active material.
After 24 hours, the plants are contaminated by spraying them with an aqueous suspension of Alternaria brassicae spores (40,000 spores per cm^3). The spores are collected from a 12 to 13 days-old culture.
The contaminated radish plants are incubated for 6-7 days at about 18° C., under a humid atmosphere.
Grading is carried out 6 to 7 days after the contamination, in comparison with the control plants.

[3] = tested on: Botrytis cinerea; experiment: In vivo test on Botrytis cinerea (cucumber grey mould); settings: Botrytis cinerea; dose of 330 ppm; cucumber plants sprayed 24 hours before contamination; grading 5/7 days after contamination vs control plants; read-out: good (at least 50%) or total protection
Description: In Vivo Test on Botrytis cinerea (Cucumber Grey Mould)
as §1
as §2, with “Cucumber” for “Barley”, “(Marketer” for “(Express”, “18-20°” for “12°”, “cotyledon Z11” for “1-leaf”, “stage” for “stage (10 cm tall)”
After 24 hours, the plants are contaminated by depositing drops of an aqueous suspension of Botrytis cinerea spores (150,000 spores per ml) on upper surface of the leaves. The spores are collected from a 15-day-old culture and are suspended in a nutrient solution composed of:
The contaminated cucumber plants are settled for 5/7 days in a climatic room at 15-11° C. (day/night) and at 80% relative humidity.
Grading is carried out 5/7 days after the contamination, in comparison with the control plants. Under these conditions, good (at least 50%) or total protection is observed at a dose of 330 ppm with the following compounds: 1, 2, 3, 4, 5, 6, 9, 10, 13, 18, 21, 22, 23, 25, 26, 27, 28, 29, 32, 34, 35, 38, 40, 43, 44, 45, 46, 47, 50, 51, 52, 53, 57 and 62.

[4] = tested on: Erysiphe graminis f. sp. tritici; experiment: In vivo test on Erysiphe graminis f. sp. tritici (powdery mildew of wheat); settings: Blumeria graminis; dose of 330 ppm; wheat plants sprayed 24 hours before contamination; grading 7 to 14 days after contamination vs control plants; read-out: good (at least 50%) or total protection
Description: In Vivo Test on Erysiphe graminis f. sp. tritici (Powdery Mildew of Wheat)
as §1
Wheat plants (Audace variety) in starter cups, sown on 50/50 peat soil-pozzolana substrate and grown at 12° C., are treated at the 1-leaf stage (10 cm tall) by spraying with the aqueous suspension described above.
as §3
After 24 hours, the plants are contaminated by dusting them with Erysiphe graminis f. sp. tritici spores, the dusting being carried out using diseased plants.
Grading is carried out 7 to 14 days after the contamination, in comparison with the control plants.
Under these conditions, good (at least 50%) or total protection is observed at a dose of 330 ppm with the following compounds: 1, 3, 4, 5, 6, 8, 9, 10, 11, 12, 13, 18, 38, 50, 43 and 45.

melting point | Structure (SMILES) | pest or weed control at 330 ppm [1] | pest or weed control at 330 ppm [2] | pest or weed control at 330 ppm [3] | pest or weed control at 330 ppm [4]
118 °C | O=C(NCCc1ncc(Cl)cc1Cl)c1ccccc1C(F)(F)F [Compound 1, N-[2-(3,5-dichloro-2-pyridinyl)ethyl]-2-(trifluoromethyl)benzamide] | ≥ 50% | ≥ 50% | ≥ 50% | ≥ 50%
133 °C | O=C(NCCc1ncc(Cl)cc1Cl)c1ccccc1I [Compound 5, N-[2-(3,5-dichloro-2-pyridinyl)ethyl]-2-(iodo)benzamide] | ≥ 50% | ≥ 50% | ≥ 50% | ≥ 50%
 | Cc1ccc(CCNC(=O)c2ccccc2C(F)(F)F)nc1 [Compound 9] | ≥ 50% | ≥ 50% | ≥ 50% | ≥ 50%
 | O=C(NCCc1ncc(Cl)cc1F)c1ccccc1C(F)(F)F [Compound 10] | ≥ 50% | ≥ 50% | ≥ 50% | ≥ 50%
 | O=C(NCCc1nc(F)ccc1Cl)c1ccccc1C(F)(F)F [Compound 13] | ≥ 50% | ≥ 50% | ≥ 50% | ≥ 50%
 | Cc1cc(Br)cnc1CCNC(=O)c1ccccc1C(F)(F)F [Compound 18] | ≥ 50% | ≥ 50% | ≥ 50% | ≥ 50%
 | O=C(NCCc1ncc(Cl)cc1Br)c1ccccc1C(F)(F)F [Compound 38] | ≥ 50% | ≥ 50% | ≥ 50% | ≥ 50%
 | Cc1c(F)c(F)nc(CCNC(=O)c2ccccc2I)c1F [Compound 43] | ≥ 50% | ≥ 50% | ≥ 50% | ≥ 50%
 | O=C(NCCc1nc(F)c(F)cc1F)c1ccccc1I [Compound 45] | ≥ 50% | ≥ 50% | ≥ 50% | ≥ 50%
